Reference: PMC12977544, “Phenotypic high-throughput screening identifies modulators of gut microbial choline metabolism” (mBio, 2026)
pIC50: −log10 of the molar value.

Key:
choline transporters = tested on: choline transporters; parameters: method as in PMID 33271015; settings: read-out: IC50 of choline transport in human cells that overexpress choline transporters; cited from earlier work
[1] = tested on: Hungatella hathewayi cultures; parameters: method as in PMID 31059309; settings: cited from earlier work
[2] = molecular target: T1, purified CutC (choline trimethylamine-lyase) (Oleidesulfovibrio alaskensis, UniProt Q30W70); assay: In vitro CutC activity assay coupled to YADH/NADH (absorbance 340 nm); assay type: biochemical, Desulfovibrio desulfuricans G20; settings: 5 nM CutC, 200 µM choline, 20°C, anaerobic
T1 construct: made in house
Description: To investigate if our compounds were inhibiting CutC directly, we tested their activity toward the purified enzyme. The activity of CutC was determined using a coupled enzyme assay, where the acetaldehyde product from the cleavage of choline to TMA is reduced to ethanol by yeast alcohol dehydrogenase (YADH) using nicotinamide adenine dinucleotide (NADH) as a cofactor. The consumption of NADH results in a change in absorption at 340 nm, and this rate of change of absorption was used to calculate the initial rates of reaction of CutC in the presence of varying concentrations of inhibitors ([14], [65]).
CutC and CutD enzymes from Desulfovibrio desulfuricans G20 were purified, CutC was activated by incubation with CutD, and the amount of glycyl radical installation was quantified as previously described ([15]). The IC50 of compounds was determined in an in vitro CutC activity assay, where CutC activity is coupled to the NADH-dependent enzymatic reduction of acetaldehyde by YADH ([15]). Briefly, assays were conducted in an anaerobic chamber (MBraun) under N2 atmosphere at 20°C. In 50 mM potassium phosphate buffer (pH 8.0, 50 mM KCl), 40 µM of CutD and 150 µM of sodium dithionite were incubated for 20 min before the addition of 200 µM of SAM and 20 µM of CutC monomer. The mixture was incubated for 1 h to activate the glycyl radical enzyme, after which the activated CutC mixture was diluted […] in 50 mM potassium phosphate buffer (pH 8.0, 50 mM KCl). A master mix containing 200 µM NADH, 0.4 µM YADH (Sigma), and the diluted CutC mixture (5 nM final concentration in assay) was prepared and aliquoted into 96-well plates (180 µL per well). Ten microliters of inhibitor or DMSO vehicle was added, followed by 10 µL of aqueous choline chloride solution (final concentration 200 µM). Absorbance was measured at 340 nm immediately after addition of all assay components, with measurements taken every 20 s for 10 min. Initial rates were calculated from absorbance measurements and fitted to Michaelis–Menten equation using nonlinear regression in GraphPad Prism 10 (v. 10.4.0). Background activity was subtracted using no substrate controls, and initial rates for each inhibitor concentration were normalized to no inhibitor controls. IC50 values were obtained by plotting normalized activity values against the logarithm of inhibitor concentration and fitting to a nonlinear regression model in GraphPad Prism 10 (v. 10.4.0).

E. coli MS 200-1 = assay: Growth inhibition of E. coli cultures in choline- and glycerol-containing minimal media; assay type: cell-based, Escherichia coli MS 200-1
Description: To validate the potential hits from the HTS, we tested the 178 compounds for inhibition of growth of E. coli MS 200-1 in glycerol minimal media at 30 µg/mL, following up with those without activity. […]. We then determined EC50 values for inhibition of TMA production from choline by bacterial cultures incubated with [trimethyl-d9]choline in phosphate-buffered saline. Of the 178 compounds tested in both growth and TMA inhibition assays, 20 inhibited TMA generation by E. coli MS 200-1 without growth-inhibitory effects in glycerol minimal medium.
NCE media was adapted based on the “no carbon E” media as previously described ([14]), and contains 29 mM potassium phosphate monobasic, 29 mM potassium phosphate dibasic, 17 mM ammonium sodium phosphate dibasic, 40 mM sodium fumarate dibasic, 0.1% (wt/vol) casamino acids, and either 20 mM choline chloride or 3 g/L glycerol. This mixture was supplemented with 1 mM magnesium sulfate, 1% ATCC vitamin supplement, and 1% ATCC trace mineral supplement.

[3] = tested on: choline transport into ∆cutC E. coli MS 200-1 cells; assay: [14C]-choline uptake; assay type: cell-based, Escherichia coli MS 200-1 ∆cutC; settings: 10 µM
Description: The ∆cutC strain of E. coli was used in this assay to prevent the formation of volatile radioactive TMA. When cells were grown aerobically, incubation with compound 42 increased choline uptake by 15 times compared to vehicle treatment (Fig. S2B).
E. coli MS 200-1 ∆cutC was grown either aerobically or anaerobically in LB medium supplemented with 1 mM choline chloride. Cells were pelleted and resuspended in fresh PBS after overnight growth to OD600 of 1 and aliquoted into microcentrifuge tubes. […] 5 µM [^14C] choline was added to the cells and left to incubate for 15 mins aerobically. At the end of the incubation period, cells were washed with PBS three times by centrifugation at 3,000 × g for 5 min and resuspended in equal volume of PBS. The resulting cell resuspension in PBS was transferred to a scintillation vial, where 10 mL of liquid scintillation cocktail was added and mixed. Radioactivity was counted using a Beckman Coulter LS6000 liquid scintillation counter for 1 min per sample.

[4] = tested on: cut gene cluster expression in E. coli MS 200-1; assay: Transcription of the cut gene cluster after choline induction (Nanostring nCounter); settings: 10 µM, NCE glycerol, 1 mM choline induction, 1.5 h
TMAO production in vivo = tested on: TMAO production in vivo; parameters: method as in PMID 30082863; settings: cited from earlier work
[5] = tested on: Proteus mirabilis lysates; parameters: method as in PMID 30082863; settings: read-out: IC50 against Proteus mirabilis lysates; cited from earlier work
[6] = tested on: high affinity choline transporter (HAChT), choline transport in rat synaptosomes; parameters: method as in PMID 2066974; settings: cited from earlier work
[7] = cited from earlier work

T1 sequence (Q30W70 53-846): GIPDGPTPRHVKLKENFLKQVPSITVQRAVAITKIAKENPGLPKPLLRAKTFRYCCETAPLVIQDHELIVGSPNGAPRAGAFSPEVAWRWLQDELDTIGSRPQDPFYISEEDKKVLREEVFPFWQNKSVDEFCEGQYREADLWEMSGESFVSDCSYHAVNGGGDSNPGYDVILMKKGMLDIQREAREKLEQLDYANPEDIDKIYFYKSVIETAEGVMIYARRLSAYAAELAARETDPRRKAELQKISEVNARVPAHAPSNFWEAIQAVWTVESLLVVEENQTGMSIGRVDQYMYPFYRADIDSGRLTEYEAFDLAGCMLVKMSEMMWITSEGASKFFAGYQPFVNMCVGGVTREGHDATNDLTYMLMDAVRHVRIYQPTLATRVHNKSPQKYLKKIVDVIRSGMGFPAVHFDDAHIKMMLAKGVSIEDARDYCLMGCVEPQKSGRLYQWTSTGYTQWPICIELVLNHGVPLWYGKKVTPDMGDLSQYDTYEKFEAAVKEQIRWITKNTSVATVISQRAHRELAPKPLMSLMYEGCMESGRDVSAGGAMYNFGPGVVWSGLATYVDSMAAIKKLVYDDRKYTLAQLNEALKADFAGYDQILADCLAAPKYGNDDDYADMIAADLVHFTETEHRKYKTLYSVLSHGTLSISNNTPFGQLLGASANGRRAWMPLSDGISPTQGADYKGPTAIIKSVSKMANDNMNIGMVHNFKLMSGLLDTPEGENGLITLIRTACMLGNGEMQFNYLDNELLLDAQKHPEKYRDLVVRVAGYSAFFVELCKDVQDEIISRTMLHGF

For `C[N+](C)(CCO)CCCCCCOc1cccc(I)c1` [Compound 4], the pIC50 (choline transporters) is given as 7.36 and the pIC50 [1] is given as 4.82.

In the case of `Cc1ccc(-c2cc(C(=O)NCCCN3CCCCCC3)c(C)[nH]2)cc1C` [Compound 42], the pIC50 [2] was 4.62, the “Inhibition of E. coli growth on choline” value (E. coli MS 200-1; choline minimal medium, 7 h, 6: 125–500 µM, 42: 30–100 µM) was “dose-dependent” and the “Effect on growth of E. coli MS 200-1 in glycerol medium” value (E. coli MS 200-1; glycerol NCE minimal medium) was “not observed in glycerol”. The “Increase of choline uptake compared to vehicle” value ([3]; cells grown aerobically) was 15 times, the “Increase of choline uptake compared to vehicle” value ([3]; cells grown anaerobically) was 1.2 times and the “Effect on cut gene cluster expression vs DMSO control” value [4] was “did not significantly change gene expression”.

In the case of `C[N+](C)(CF)CCO` [FMC, fluoromethylcholine], the “EC50 of inhibition of TMAO production in vivo” value (TMAO production in vivo) is given as 3.4 mg/kg.

For `C[N+](C)(CI)CCO` [IMC, Iodomethylcholine], the pIC50 [5] is given as 8.82, the pIC50 [6] is given as 6.31 and the “Concentration in mice cecum and colon samples” value ([7]; dosed at 100 mg/kg, after 24 h) is given as “around 6 mM”. The “Level of inhibitor and its metabolite iodomethylbetaine in serum” value ([7]; mouse, in vivo) was “low micromolar levels” and the “EC50 of inhibition of TMAO production in vivo” value (TMAO production in vivo) was 45 mg/kg.
